{
  "source": "patent US20020184551A1",
  "about": "“Process for the preparation of deactivated rice bran lipase” (COUNCIL OF SCIENTIFIC & INDUSTRIAL RESEARCH, priority 2001, published 2002)",
  "key": {"[1]": {"system": "rice bran lipase", "description": "The enzyme solution containing different concentrations of ligands was passed through a sephadex G25 column which was previously equilibrated with the elution buffer. The protein eluting immediately after the void volume was collected and assayed for the activity.\nThe enzyme was also checked for reversibility of its original activity after removal of ligands by gel filtrations on Sephadex G-25 column."}, "[2]": {"system": "rice bran lipase", "conditions": "lipase 2 mg/ml, substrate 5% w/v, CaCl2 0.1 M", "protocol": "To approximately 2 mg of rice bran lipase in 0.05 M sodium phosphate buffer, pH 7.4 is added different concentrations of ligands ranging from 1:10 to 1:1500 mole to mole ratio of protein to ligand and incubated for 1 h at30° C. in Innova™ 4000 incubator shaker at 150 rpm. The reaction mixture was checked for enzyme activity by pH-stat method using Mettler Toledo DL12 titrator using 5% solution of triacetin or tributyrin as substrate. Respective blank solutions where the enzyme was inactivated by the addition of distilled alcohol was also used. The activity was expressed in terms of control activity as microequivalents of alkali consumed per mg of protein per hour.\nTo approximately 2 mg of rice bran lipase in 0.05 m sodium phosphate buffer, pH 7.4 is added different concentrations of ligand ranging from 1:10 to 1:1500 on a mole to mole ratio and incubated fpr 1 hr at 30° C. in Innova™ 4000 incubator shaker at 150 rpm. The reaction mixture was checked for enzyme activity by pH start method using mettler Toledo DL 12 titrator using 5% solution of triacetin or tributyrin as substrate. Respective blank solutions where the enzyme was inactivated by the addition of distilled alcohol was also used. The activity was expressed in terms of control activity as micro equivalent of alkali consumed per mg of protein per hour."}},
  "note": "Like-named read-outs stand apart in the source and are kept apart here.",
  "data": [
    {"substance": "benzene boronic acid [ligand]", "values": [
      {"measurement": "reversibility of enzyme activity after removal of ligand", "setting": "[1]; 1:10 ratio, Sephadex G-25 column chromatography", "result": "able to recover the initial activity"},
      {"measurement": "reversibility of enzyme activity after removal of ligand", "setting": "[1]; 1:1500 mole to mole ratio, gel filtration on Sephadex G-25 column", "result": "recovered almost its original activity"},
      {"measurement": "loss of initial activity of rice bran lipase", "setting": "[2]; 1:10 mole to mole ratio of protein to ligand", "result": 35, "unit": "%"},
      {"measurement": "loss of initial activity of rice bran lipase", "setting": "[2]; 1:1500 mole/mole protein to ligand", "result": "~77", "unit": "%"}
    ]}
  ]
}
